Laboratory results: ChEMBL document CHEMBL1201862, “PubChem BioAssay data set” (2004)
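Results reflect a 48-hour exposure of cells in 96-well plates to compound at five concentrations. GI50: concentration for 50% inhibition of growth.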 Activity calls are given as the source filed them. No stated cut-off is given here; in the data, active = GI50 up to about 1.1 µM and inactive = higher.

Assays:
Assay in all cases: NCI anticancer screen, dose series, 48 h
SK-MEL-2 = system: SK-MEL-2
UACC-62 = system: UACC-62
NCI/ADR-RES = system: NCI/ADR-RES
NCI-H226 = system: NCI-H226
MDA-N = system: MDA-N
OVCAR-5 = system: OVCAR-5
HOP-62 = system: HOP-62
KM12 = system: KM12
A549 = system: A549
SNB-19 = system: SNB-19
MCF7 = system: MCF7
MDA-MB-435 = system: MDA-MB-435
SK-OV-3 = system: SK-OV-3
CCRF-CEM = system: CCRF-CEM
DU-145 = system: DU-145
IGROV-1 = system: IGROV-1
HT-29 = system: HT-29
CAKI-1 = system: CAKI-1
NCI-H460 = system: NCI-H460
BT-549 = system: BT-549

| SMILES | GI50 (SK-MEL-2) | GI50 (UACC-62) | GI50 (NCI/ADR-RES) | GI50 (NCI-H226) | GI50 (MDA-N) | GI50 (OVCAR-5) | GI50 (HOP-62) | GI50 (KM12) | GI50 (A549) | GI50 (SNB-19) | GI50 (MCF7) | GI50 (MDA-MB-435) | GI50 (SK-OV-3) | GI50 (CCRF-CEM) | GI50 (DU-145) | GI50 (IGROV-1) | GI50 (HT-29) | GI50 (CAKI-1) | GI50 (NCI-H460) | GI50 (BT-549) |
| --- | --- | --- | --- | --- | --- | --- | --- | --- | --- | --- | --- | --- | --- | --- | --- | --- | --- | --- | --- | --- |
| COc1cc(OC)c2c(C)cc(=O)oc2c1 | > 100 µM (inactive) | 96.4 µM (inactive) | 63.8 µM (inactive) | 41.5 µM (inactive) | > 100 µM (inactive) | > 100 µM (inactive) | > 100 µM (inactive) | 54.2 µM (inactive) | 55.7 µM (inactive) | > 100 µM (inactive) | 85.9 µM (inactive) | 88.9 µM (inactive) | > 100 µM (inactive) | > 100 µM (inactive) | 52.7 µM (inactive) | 35.2 µM (inactive) | 43.4 µM (inactive) |  |  |  |
| CN(N=O)N1C(=O)SCC(c2ccccc2)(c2ccccc2)C1=O | 18.9 µM (inactive) | 37.8 µM (inactive) | 34.4 µM (inactive) | 14 µM (inactive) | 28.4 µM (inactive) | > 100 µM (inactive) | 65.9 µM (inactive) | 30.1 µM (inactive) | 7.98 µM (inactive) | 57.9 µM (inactive) | 20.9 µM (inactive) | 24.3 µM (inactive) | 25.2 µM (inactive) | 31.1 µM (inactive) | 91 µM (inactive) |  | 33.3 µM (inactive) | 46.3 µM (inactive) | 9.62 µM (inactive) |  |
| CC1=NC(C)(C)N(O)C1(C)C | > 100 µM (inactive) | > 100 µM (inactive) | > 100 µM (inactive) | > 100 µM (inactive) | > 100 µM (inactive) | > 100 µM (inactive) | > 100 µM (inactive) | > 100 µM (inactive) | > 100 µM (inactive) | > 100 µM (inactive) | > 100 µM (inactive) | > 100 µM (inactive) | > 100 µM (inactive) | > 100 µM (inactive) | > 100 µM (inactive) | > 100 µM (inactive) | > 100 µM (inactive) |  | > 100 µM (inactive) |  |
| COc1cccc(CCCNC(=O)Cc2cc(OC)c(OC)cc2CO)c1 | > 100 µM (inactive) | > 100 µM (inactive) | > 100 µM (inactive) | > 100 µM (inactive) | > 100 µM (inactive) | > 100 µM (inactive) | > 100 µM (inactive) | > 100 µM (inactive) | > 100 µM (inactive) | > 100 µM (inactive) |  | > 100 µM (inactive) |  | > 100 µM (inactive) | > 100 µM (inactive) | > 100 µM (inactive) | > 100 µM (inactive) | > 100 µM (inactive) | > 100 µM (inactive) | > 100 µM (inactive) |
| OC1(CCc2ccccc2)COC(C(F)(F)F)(C(F)(F)F)C1 (stereo not drawn) | > 100 µM (inactive) | > 100 µM (inactive) | > 100 µM (inactive) | > 100 µM (inactive) | > 100 µM (inactive) | > 100 µM (inactive) | > 100 µM (inactive) | > 100 µM (inactive) | > 100 µM (inactive) | > 100 µM (inactive) | > 100 µM (inactive) | > 100 µM (inactive) | > 100 µM (inactive) | > 100 µM (inactive) | > 100 µM (inactive) | > 100 µM (inactive) | > 100 µM (inactive) | > 100 µM (inactive) | > 100 µM (inactive) |  |
| CSC1=N/C(=C\c2c[nH]c3ccccc23)C(=O)N1 | 35.8 µM (inactive) | 92.9 µM (inactive) | 85.7 µM (inactive) | > 100 µM (inactive) |  | > 100 µM (inactive) | 76.9 µM (inactive) |  | 69.8 µM (inactive) | > 100 µM (inactive) | 28.8 µM (inactive) | 55.2 µM (inactive) | > 100 µM (inactive) | > 100 µM (inactive) | 96.8 µM (inactive) | 67.6 µM (inactive) | 31.6 µM (inactive) |  | 49.7 µM (inactive) | > 100 µM (inactive) |
| COc1ccc(/C=C2\Sc3nnc(-c4ccccc4)n3N=C2c2cc(F)c(Cl)cc2Cl)cc1OC | > 100 µM (inactive) |  | 33.1 µM (inactive) | > 100 µM (inactive) | 23.1 µM (inactive) | > 100 µM (inactive) | > 100 µM (inactive) | 26.7 µM (inactive) |  |  | 19.8 µM (inactive) | 13.8 µM (inactive) | > 100 µM (inactive) | 4.98 µM (inactive) | > 100 µM (inactive) | 40.4 µM (inactive) | 12.1 µM (inactive) | 31 µM (inactive) | > 100 µM (inactive) |  |
| CC(C)(C)OC(=O)N[C@H]1CCN(C2CCCCC2)C1=O | > 100 µM (inactive) | > 100 µM (inactive) | 40.6 µM (inactive) | > 100 µM (inactive) | > 100 µM (inactive) | > 100 µM (inactive) | > 100 µM (inactive) |  | > 100 µM (inactive) | > 100 µM (inactive) | > 100 µM (inactive) | > 100 µM (inactive) | > 100 µM (inactive) | > 100 µM (inactive) | > 100 µM (inactive) | > 100 µM (inactive) |  |  | > 100 µM (inactive) |  |
| CC1=C(C)SC(=C2Sc3[n-]c(=O)[nH]c(=O)c3S2)S1.CCCC[N+](CCCC)(CCCC)CCCC |  | 27.2 µM (inactive) | 95.9 µM (inactive) | > 100 µM (inactive) |  | > 100 µM (inactive) | > 100 µM (inactive) | 98.2 µM (inactive) | > 100 µM (inactive) | 73.1 µM (inactive) | 42.5 µM (inactive) | 31.6 µM (inactive) | > 100 µM (inactive) | 40.4 µM (inactive) | > 100 µM (inactive) | > 100 µM (inactive) | > 100 µM (inactive) | > 100 µM (inactive) | > 100 µM (inactive) | > 100 µM (inactive) |
| COc1cc(OC)c(OC)cc1/C=N/N=C(\N)NO | 99.8 µM (inactive) | > 100 µM (inactive) | > 100 µM (inactive) | 61.4 µM (inactive) | > 100 µM (inactive) | > 100 µM (inactive) | > 100 µM (inactive) | 18.5 µM (inactive) | > 100 µM (inactive) | > 100 µM (inactive) | > 100 µM (inactive) | 68.2 µM (inactive) | > 100 µM (inactive) | > 100 µM (inactive) | > 100 µM (inactive) | > 100 µM (inactive) | > 100 µM (inactive) | > 100 µM (inactive) | > 100 µM (inactive) |  |
| Clc1ccc(/N=C/c2cc3cc(Br)ccc3nc2Cl)cc1 | 10.8 µM (inactive) |  | 45.1 µM (inactive) | > 50 µM (inactive) | 11.2 µM (inactive) | > 50 µM (inactive) |  | 20 µM (inactive) |  |  |  | 8.71 µM (inactive) |  | 9.08 µM (inactive) | > 50 µM (inactive) | 17.8 µM (inactive) | 16 µM (inactive) | 1.95 µM (inactive) | 18.1 µM (inactive) | > 50 µM (inactive) |
| COc1ccc(CCc2ccc(O)c(C(=O)O)c2)cc1OC | > 100 µM (inactive) | > 100 µM (inactive) | > 100 µM (inactive) | > 100 µM (inactive) | > 100 µM (inactive) | > 100 µM (inactive) | > 100 µM (inactive) | > 100 µM (inactive) | > 100 µM (inactive) | > 100 µM (inactive) | > 100 µM (inactive) | > 100 µM (inactive) | > 100 µM (inactive) | 50.7 µM (inactive) | > 100 µM (inactive) | > 100 µM (inactive) | > 100 µM (inactive) | 32.4 µM (inactive) | > 100 µM (inactive) |  |
| COC(=O)C(C)(C)[C@@H]1OC(=O)N(S(=O)(=O)c2c(C)cc(C)cc2C)[C@H]1C(C)C | 95.7 µM (inactive) | > 100 µM (inactive) | > 100 µM (inactive) | 27.4 µM (inactive) | > 100 µM (inactive) | > 100 µM (inactive) | > 100 µM (inactive) | 91.4 µM (inactive) | 85.7 µM (inactive) | > 100 µM (inactive) | 75.9 µM (inactive) | > 100 µM (inactive) | > 100 µM (inactive) | 75.9 µM (inactive) | > 100 µM (inactive) | > 100 µM (inactive) | 65.8 µM (inactive) |  | 55 µM (inactive) |  |
| CC(=O)c1ccc2c(c1)CC1(C2)Cc2cc3c(cc2C1=O)CCC3 (stereo not drawn) | 21.7 µM (inactive) |  | 12.2 µM (inactive) |  | 14.4 µM (inactive) | 30.6 µM (inactive) | 28 µM (inactive) | 17.5 µM (inactive) | 20.9 µM (inactive) | 58.9 µM (inactive) | 20.8 µM (inactive) | 17 µM (inactive) | 33.6 µM (inactive) | 13.3 µM (inactive) | 24.3 µM (inactive) | 19.8 µM (inactive) | 15.7 µM (inactive) | 12.9 µM (inactive) | 26.1 µM (inactive) |  |
| O=C1CCCCC/C1=C\c1cccc(Cl)c1 | 46.5 µM (inactive) | 45.9 µM (inactive) |  | 34.4 µM (inactive) | 45.4 µM (inactive) | > 100 µM (inactive) | > 100 µM (inactive) | 30.8 µM (inactive) | 63.2 µM (inactive) | > 100 µM (inactive) |  | 31 µM (inactive) | > 100 µM (inactive) | 4.06 µM (inactive) | > 100 µM (inactive) | 46.2 µM (inactive) | 38.6 µM (inactive) | 72.6 µM (inactive) | 29.6 µM (inactive) | 43.2 µM (inactive) |
| O=c1oc(-c2ccc(O)c(O)c2)cc2cccc(O)c12 [THUNBERGINOL A] | 26.1 µM (inactive) |  | 14.6 µM (inactive) |  |  | 22 µM (inactive) | 15.2 µM (inactive) | 11.4 µM (inactive) | 35.4 µM (inactive) | 19.1 µM (inactive) | 9.57 µM (inactive) | 24.2 µM (inactive) | 29.4 µM (inactive) | 0.998 µM (active) | 23.8 µM (inactive) | 6.19 µM (inactive) |  | 6.71 µM (inactive) | 13.4 µM (inactive) | 15.6 µM (inactive) |
